The text below walks through data of PMC5303003 (Bioorganic & medicinal chemistry, 2017).

Experiment [1] concerns the target T1, σ1 receptor (Cavia porcellus, UniProt Q60492). Particulars: read-out: Ki-σ1 of racemic compounds, previously reported; cited from earlier work.
Experiment [2] addresses T1, σ1 receptor. Nature of the experiment: σ1 receptor competitive binding assay. Particulars: Ki σ1, (+)-isomer, guinea pig brain membranes, mean ± SEM.
For experiment [3], the target named is vesicular acetylcholine transporter (VAChT). The note with it: cited from earlier work.
Experiment [4] has as its target emopamil binding protein (EBP). The note with it: read-out: Ki for emopamil binding protein (EBP); cited from earlier work.
The next experiment concerns the target σ2 receptor. Particulars: read-out: Ki-σ2; cited from earlier work.
Experiment [5] deals with σ1 receptor. The experiment is described as follows: MicroPET blocking study with σ1 ligand pretreatment in nonhuman primate. The note with it: 1.0 mg/kg i.v. 5 min prior to tracer injection, NHP, versus baseline. The class given is in vivo, cynomolgus macaque.
Experiment [6] deals with σ1 receptor. Particulars: cited from earlier work; for Ki: read-out: Ki-σ1.

Like-named read-outs stand apart in the source and are kept apart here.

T1 sequence (Q60492 whole entry): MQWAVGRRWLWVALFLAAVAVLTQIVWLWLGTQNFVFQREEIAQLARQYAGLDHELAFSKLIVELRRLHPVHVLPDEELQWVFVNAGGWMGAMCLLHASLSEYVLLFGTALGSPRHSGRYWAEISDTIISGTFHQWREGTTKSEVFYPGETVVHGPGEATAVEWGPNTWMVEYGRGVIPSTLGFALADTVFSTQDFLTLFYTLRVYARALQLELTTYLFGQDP

For the compound `O=C(c1ccc(F)cc1)C1CCN(C2CCN(Cc3ccc(F)cc3)CC2O)CC1` (racemic) [14a], the Ki at σ1 receptor [1] was 0.48 nM.

`O=C(c1ccc(F)cc1)C1CCN(C2CCN(Cc3ccc(F)cc3)CC2O)CC1` (single isomer, unassigned; (+)) [(+)-14a] came in with a Ki at σ1 receptor [2] of 0.14 ± 0.02 nM.

In the case of `COc1ccc(CCN2CCN(CCCc3ccccc3)CC2)cc1OC` [SA4503], the figures for the Ki in experiment [3] (read-out: Ki for VAChT) and in experiment [4] were 50 nM and 1.7 nM, respectively.

In the case of `O=C(Cc1ccccc1F)NC1CCC(Cc2ccccc2)CC1` (centres unmarked) [Yun122, N-(4-benzylcyclohexyl)-2-(2-fluorophenyl)acetamide], the Ki at σ2 receptor was 667 nM; on σ1 receptor [6], 3.6 nM. Also, the “effect of pretreatment on brain uptake of (−)-[18F]TZ3108” value in the experiment on σ1 receptor [5] is given as “significantly reduced”.

`COc1ccc(CCN2CCN(CCCc3ccccc3)CC2)cc1O[11CH3]` [[^11C]SA4503, 1-(4-methoxy-3-(methoxy-^11C)phenethyl-^11C)-4-(3-phenyl-propyl)piperazine]: in the experiment on σ1 receptor [6], the “selectivity for σ1 over VAChT” value is 11 fold and the “selectivity for σ1 over σ2 receptor” value is 55 fold.

Consider `O=c1sc2cc(CCCF)ccc2n1CCN1CCCCCC1` [[^18F]FTC-146, ^18F-6-(3-fluoropropyl)-3-(2-(azepan-1 yl)ethyl)benzo-[d]thiazol-2(3H)-one], for which the figures for the Ki (in experiment [3] (read-out: Ki-VAChT); at σ1 receptor [6]) were 450 nM and 0.0025 nM, respectively.

As usually defined, the Ki is the dissociation constant of the complex between target and ligand, obtained from inhibition or displacement.
